Results published in patent US10183950B2, “Thienopyrimidine inhibitors of atypical protein kinase C” (Cancer Research Technology Limited, priority 2011, dated 2019).

Each compound was assayed against T1, full-length human PKCι (Homo sapiens, UniProt P41743) (assay: PKCι IC50 IMAP fluorescence polarisation assay, full-length enzyme). Conditions: enzyme form not given; no asterisk; read-out: Activity (IC50 printed as a bound, no asterisk).
T1 construct: Recombinant, full-length human PKCι expressed in Sf21 insect cells is also commercially available; purchased; host or cells: Sf21 insect cells
T1 sequence (P41743 1-596): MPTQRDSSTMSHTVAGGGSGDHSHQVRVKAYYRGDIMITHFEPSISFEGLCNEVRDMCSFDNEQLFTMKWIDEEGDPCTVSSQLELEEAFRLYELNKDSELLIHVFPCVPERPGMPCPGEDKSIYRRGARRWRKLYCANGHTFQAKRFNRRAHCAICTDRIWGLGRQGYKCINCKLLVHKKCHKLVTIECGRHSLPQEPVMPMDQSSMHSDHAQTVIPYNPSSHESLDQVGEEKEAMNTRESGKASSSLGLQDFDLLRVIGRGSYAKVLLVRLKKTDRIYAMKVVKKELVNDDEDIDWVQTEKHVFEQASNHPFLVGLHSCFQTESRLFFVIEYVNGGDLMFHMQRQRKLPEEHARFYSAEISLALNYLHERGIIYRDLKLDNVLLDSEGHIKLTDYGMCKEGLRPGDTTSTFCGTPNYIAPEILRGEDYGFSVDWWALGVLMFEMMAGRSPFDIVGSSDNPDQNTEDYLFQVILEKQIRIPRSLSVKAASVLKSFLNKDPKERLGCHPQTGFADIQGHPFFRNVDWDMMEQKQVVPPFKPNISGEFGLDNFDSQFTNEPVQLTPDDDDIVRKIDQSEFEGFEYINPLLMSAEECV
Assay type: biochemical

Q: `Cn1cc(-c2nc(NCCN)c3c4c(sc3n2)CCCC4)cn1` [compound 195, N*1*-[2-(1-Methyl-1H-pyrazol-4-yl)-5,6,7,8-tetrahydro-benzo[4,5]thieno[2,3-d]pyrimidin-4-yl]-ethane-1,2-diamine] was tested. Which IC50 did it give?
A: Its IC50 is > 60 µM.

Same assay, conditions: full length PKCi at 15 μM ATP; read-out: IC50 in IMAP assay against full length PKCi

Q: For `N[C@H](CNc1nc(-c2ccncc2F)nc2c(-c3cc(C(F)(F)F)[nH]n3)csc12)Cc1ccccc1` [compound 421, (S)-N*1*-[2-(3-Fluoro-pyridin-4-yl)-7-(5-trifluoromethyl-2H-pyrazol-3-yl)-thieno[3,2-d]pyrimidin-4-yl]-3-phenyl-propane-1,2-diamine], which IC50 is on record?
A: Its IC50 is 1 to 10 µM.

Q: With `COc1ccc(C)cc1-c1c(C)sc2c(NC[C@@H](N)Cc3ccccc3)nc(-c3ccncc3)nc12` [compound 450, (S)-N*1*-[7-(2-Methoxy-5-methyl-phenyl)-6-methyl-2-pyridin-4-yl-thieno[3,2-d]pyrimidin-4-yl]-3-phenyl-propane-1,2-diamine] as the compound, how does the IC50 read?
A: The IC50 was 10 to 40 µM.

Q: With `CCC(C)(C)C(=O)Nc1csc2c(N[C@@H]3CCNC3)nc(-c3ccncc3)nc12` [compound 471, 2,2-Dimethyl-N-[2-pyridin-4-yl-4-((R)-pyrrolidin-3-ylamino)-thieno[3,2-d]pyrimidin-7-yl]-butyramide] as the compound, how does the IC50 read?
A: Its IC50 is 10 to 40 µM.

Q: How did the IC50 turn out when `Fc1cccc(Nc2csc3c(N[C@@H]4CCNC4)nc(-c4ccncc4F)nc23)c1` [compound 499, N*7*-(3-Fluoro-phenyl)-2-(3-fluoro-pyridin-4-yl)-N*4*-(R)-pyrrolidin-3-yl-thieno[3,2-d]pyrimidine-4,7-diamine] was run?
A: Its IC50 is 1 to 10 µM.

Q: `NC(CNc1nc(-c2ccncc2F)nc2c(-c3ccsc3)csc12)Cc1ccccc1` (stereo in doubt) [compound 431, (R)-N*1*-[2-(3-Fluoro-pyridin-4-yl)-7-thiophen-3-yl-thieno[3,2-d]pyrimidin-4-yl]-3-phenyl-propane-1,2-diamine] was tested. Which IC50 did it give?
A: The IC50 was 1 to 10 µM.

Q: How did the IC50 turn out when `Brc1csc2c(NC[C@H]3CCCN3)nc(-c3ccncc3)nc12` [compound 342, (7-Bromo-2-pyridin-4-yl-thieno[3,2-d]pyrimidin-4-yl)-(R)-1-pyrrolidin-2-ylmethyl-amine] was run?
A: The IC50 was 10 to 40 µM.

Q: With `O=C(Nc1cc(-c2nc(N[C@@H]3CCNC3)c3sccc3n2)ccn1)c1cnccn1` [compound 615, Pyrazine-2-carboxylic acid {4-[4-((R)-pyrrolidin-3-ylamino)-thieno[3,2-d]pyrimidin-2-yl]-pyridin-2-yl}-amide] as the compound, how does the IC50 read?
A: Its IC50 is 1 to 10 µM.

Q: For `c1cc(-c2nc(N[C@@H]3CCNC3)c3sccc3n2)cc(NCC2CC2)n1` [compound 597, {2-[2-(Cyclopropylmethyl-amino)-pyridin-4-yl]-thieno[3,2-d]pyrimidin-4-yl}-(R)-pyrrolidin-3-yl-amine], which IC50 is on record?
A: Its IC50 is 1 to 10 µM.

Q: `N[C@H](CNc1nc(-c2ccncc2)nc2c(Br)csc12)Cc1ccccc1` [compound 336, (S)—N*1*-(7-Bromo-2-pyridin-4-yl-thieno[3,2-d]pyrimidin-4-yl)-3-phenyl-propane-1,2-diamine] was tested. Which IC50 did it give?
A: The IC50 was < 0.1 µM.

Q: With `COc1cccc(OC(C)C)c1-c1c(C)sc2c(NC[C@@H](N)Cc3ccccc3)nc(-c3ccncc3)nc12` [compound 440, (S)-N*1*-[7-(2-Isopropoxy-6-methoxy-phenyl)-6-methyl-2-pyridin-4-yl-thieno[3,2-d]pyrimidin-4-yl]-3-phenyl-propane-1,2-diamine] as the compound, how does the IC50 read?
A: Its IC50 is 10 to 40 µM.

Q: How did the IC50 turn out when `N[C@H](CNc1nc(-c2ccncc2)nc2c(-c3ccn[nH]3)csc12)Cc1ccccc1` [compound 390, (S)-3-Phenyl-N*1*-[7-(2H-pyrazol-3-yl)-2-pyridin-4-yl-thieno[3,2-d]pyrimidin-4-yl]-propane-1,2-diamine] was run?
A: Its IC50 is < 0.1 µM.

Q: How did the IC50 turn out when `C#Cc1sc2c(N[C@@H]3CCNC3)nc(-c3ccncc3)nc2c1C` [compound 543, (6-Ethynyl-7-methyl-2-pyridin-4-yl-thieno[3,2-d]pyrimidin-4-yl)-(R)-pyrrolidin-3-yl-amine] was run?
A: Its IC50 is 1 to 10 µM.

Q: With `Cn1ccc(-c2csc3c(NC[C@@H](N)Cc4ccccc4)nc(-c4ccncc4)nc23)n1` [compound 415, (S)-N*1*-[7-(1-Methyl-1H-pyrazol-3-yl)-2-pyridin-4-yl-thieno[3,2-d]pyrimidin-4-yl]-3-phenyl-propane-1,2-diamine] as the compound, how does the IC50 read?
A: Its IC50 is 1 to 10 µM.

Q: How did the IC50 turn out when `O=C(Nc1cc(-c2nc(N[C@@H]3CCNC3)c3sccc3n2)ccn1)c1ccc(F)cc1` [compound 618, 4-Fluoro-N-{4-[4-((R)-pyrrolidin-3-ylamino)-thieno[3,2-d]pyrimidin-2-yl]-pyridin-2-yl}-benzamide] was run?
A: The IC50 was 0.1 to 1 µM.

Q: Which IC50 does the source give for `C=Cc1csc2c(NC[C@@H](N)Cc3ccccc3)nc(-c3ccncc3)nc12` [compound 408, (S)-3-Phenyl-N*1*-(2-pyridin-4-yl-7-vinyl-thieno[3,2-d]pyrimidin-4-yl)-propane-1,2-diamine] here?
A: The IC50 was < 0.1 µM.

Q: `NC(CNc1nc(-c2ccncc2F)nc2c(-c3cccc(CO)c3)csc12)Cc1ccccc1` (stereo in doubt) [compound 425, {3-[4-((R)-2-Amino-3-phenyl-propylamino)-2-(3-fluoro-pyridin-4-yl)-thieno[3,2-d]pyrimidin-7-yl]-phenyl}-methanol] was tested. Which IC50 did it give?
A: The IC50 was 1 to 10 µM.

Q: How did the IC50 turn out when `CCNC(=O)c1csc2c(NC[C@@H](N)Cc3ccccc3)nc(-c3ccncc3)nc12` [compound 554, 4-((S)-2-Amino-3-phenyl-propylamino)-2-pyridin-4-yl-thieno[3,2-d]pyrimidine-7-carboxylic acid ethylamide] was run?
A: The IC50 was 0.1 to 1 µM.

Q: How did the IC50 turn out when `NCc1ccc(-c2csc3c(NCC(N)Cc4ccccc4)nc(-c4ccncc4F)nc23)cc1` (stereo in doubt) [compound 427, (R)-N*1*-[7-(4-Aminomethyl-phenyl)-2-(3-fluoro-pyridin-4-yl)-thieno[3,2-d]pyrimidin-4-yl]-3-phenyl-propane-1,2-diamine] was run?
A: Its IC50 is 1 to 10 µM.

Q: With `Cc1c(Br)sc2c(NC[C@@H](N)Cc3ccccc3)nc(-c3ccncc3)nc12` [compound 337, (S)-N*1*-(6-Bromo-7-methyl-2-pyridin-4-yl-thieno[3,2-d]pyrimidin-4-yl)-3-phenyl-propane-1,2-diamine] as the compound, how does the IC50 read?
A: The IC50 was 0.1 to 1 µM.

Q: For `CC(C)(C)c1sc2c(NC[C@@H](N)Cc3ccccc3)nc(-c3ccncc3)nc2c1-c1ccc(F)nc1` [compound 443, (S)-N*1*-[6-tert-Butyl-7-(6-fluoro-pyridin-3-yl)-2-pyridin-4-yl-thieno[3,2-d]pyrimidin-4-yl]-3-phenyl-propane-1,2-diamine], which IC50 is on record?
A: The IC50 was 10 to 40 µM.

Q: Which IC50 does the source give for `N[C@H](CNc1nc(-c2ccncc2)nc2c(C#Cc3ccccc3F)csc12)Cc1ccccc1` [compound 530, (S)-N*1*-[7-(2-Fluoro-phenylethynyl)-2-pyridin-4-yl-thieno[3,2-d]pyrimidin-4-yl]-3-phenyl-propane-1,2-diamine] here?
A: Its IC50 is 0.1 to 1 µM.

Q: How did the IC50 turn out when `C[C@@H](O)CNc1cc(-c2nc(N[C@@H]3CCNC3)c3sccc3n2)ccn1` [compound 592, (R)-1-{4-[4-((R)-Pyrrolidin-3-ylamino)-thieno[3,2-d]pyrimidin-2-yl]-pyridin-2-ylamino}-propan-2-ol] was run?
A: The IC50 was 1 to 10 µM.

Q: With `Fc1cnccc1-c1nc(N[C@@H]2CCNC2)c2scc(Nc3cccnc3)c2n1` [compound 494, 2-(3-Fluoro-pyridin-4-yl)-N*7*-pyridin-3-yl-N*4*- (R)-pyrrolidin-3-yl-thieno[3,2-d]pyrimidine-4,7-diamine] as the compound, how does the IC50 read?
A: The IC50 was 10 to 40 µM.

Same assay, conditions: full length PKCi at 15 μM ATP; read-out: IC50 in IMAP assay against full length PKCi (Activity)

Q: For `N[C@H](CNc1nc(-c2ccncc2)nc2sc3c(c12)CCCC3)Cc1cccnc1` [compound 57, (S)-3-Pyridin-3-yl-N*1*-(2-pyridin-4-yl-5,6,7,8-tetrahydro-benzo[4,5]thieno[2,3-d]pyrimidin-4-yl)-propane-1,2-diamine], which IC50 is on record?
A: Its IC50 is 0.1 to 1 µM.

Q: With `CC(=O)N1CCc2c(sc3nc(-c4ccncc4)nc(NCCN)c23)C1` [compound 105, 1-[4-(2-Amino-ethylamino)-2-pyridin-4-yl-5,8-dihydro-6H-pyrido[4′,3′:4,5]thieno[2,3-d]pyrimidin-7-yl]-ethanone] as the compound, how does the IC50 read?
A: The IC50 was 1 to 10 µM.

Q: How did the IC50 turn out when `N[C@H](CNc1nc(-c2ccncc2)nc2sc3c(c12)CCCC3)Cc1ccccc1F` [compound 51, (S)-3-(2-Fluoro-phenyl)-N*1*-(2-pyridin-4-yl-5,6,7,8-tetrahydro-benzo[4,5]thieno[2,3-d]pyrimidin-4-yl)-propane-1,2-diamine] was run?
A: Its IC50 is 0.1 to 1 µM.

Q: Which IC50 does the source give for `CN(C)CC(=O)N1CCc2c(sc3nc(-c4ccncc4)nc(NCCN)c23)C1` [compound 111, 1-[4-(2-Amino-ethylamino)-2-pyridin-4-yl-5,8-dihydro-6H-pyrido[4′,3′:4,5]thieno[2,3-d]pyrimidin-7-yl]-2-dimethylamino-ethanone] here?
A: The IC50 was 10 to 40 µM.

Q: Which IC50 does the source give for `CC1(C)CCc2c(sc3nc(-c4ccncc4)nc(NCCN)c23)C1` [compound 43, N*1*-(7,7-Dimethyl-2-pyridin-4-yl-5,6,7,8-tetrahydro-benzo[4,5]thieno[2,3-d]pyrimidin-4-yl)-ethane-1,2-diamine] here?
A: Its IC50 is 1 to 10 µM.

Q: `Cc1sc2c(NC[C@@H](N)Cc3ccccc3)nc(-c3ccncc3)nc2c1Br` [compound 300, (S)—N*1*-(7-bromo-6-methyl-2-pyridin-4-yl-thieno[3,2-d]pyrimidin-4-yl)-3-phenyl-propane-1,2-diamine] was tested. Which IC50 did it give?
A: Its IC50 is < 0.1 µM.

Q: For `NCCNc1nc(-c2ccncc2)nc2sc3c(c12)CCN(C(=O)C1CCC1)C3` [compound 109, [4-(2-Amino-ethylamino)-2-pyridin-4-yl-5,8-dihydro-6H-pyrido[4′,3′:4,5]thieno[2,3-d]pyrimidin-7-yl]-cyclobutyl-methanone], which IC50 is on record?
A: Its IC50 is 10 to 40 µM.
